US20190159450A1, “PYRIDINE-BASED COMPOUND INCLUDING ISOXAZOLINE RING AND USE THEREOF AS HERBICIDE” (MOGHU RESEARCH CENTER LTD., priority 2016, published 2019)

Tests used:
Format in all cases: in vivo
maize [1] = assay: Herbicidal activity test, pre-weeds emergence treatment (crop damage); conditions: Table 4, 200 g/ha, assessed 2 to 3 weeks after spraying, scale 0-10 (0: no effect, 10: complete death)
Method: (§1) A rectangular plastic pot with a surface area of 300 cm^2 was filled with sandy loam soil and mixed soil at a ratio of 1:1, and four kinds of weeds including Quamoclit pennata, Abutilon theophrasti Medicus, and Aeschynomene indica, Xanthium strumarium were sown therein. In another pot made in the same way, three kinds of crop seeds including maize, wheat, and rice were sown. The pots were watered and one day later, a medicament was sprayed thereon. The spraying was performed by using a track sprayer (R&D Sprayer, USA) equipped with Teejet 8002EVS (Spraying Systems Co., USA) nozzle, and the spray amount was controlled to be 1000 L/ha. A spray solution was prepared by dissolving the compound of each example or a control material in acetone, and then, adding the same amount of 0.1% (v/v) tween 20 aqueous solution thereto. The spray amount was 200 g/ha. The pots were placed in a greenhouse in which the temperature was maintained at 25° C. to 30° C. during the day and 15° C. to 25° C. during the night, and was regularly watered. After 2 to 3 weeks from the spraying of the compounds or the control material, the efficacy and the damages on each weed and each crop were assessed according to the scale of 0-10 (0: no effect, 10: complete death) scale and the results are shown in Table 3 below.
(§2) Pots for crops and weeds were prepared in the same manner as the test method illustrated in Table 3, and three kinds of weeds selected from Quamoclit pennata, Abutilon theophrasti Medicus, and Aeschynomene indica, Xanthium strumarium were used.

rice [2] = assay: as above; conditions: Table 4, 200 g/ha, assessed 2 to 3 weeks after spraying, scale 0-10 (0: no effect, 10: complete death)
Method: as §1, §2

wheat [3] = assay: as above; conditions: Table 4, 200 g/ha, assessed 2 to 3 weeks after spraying, scale 0-10 (0: no effect, 10: complete death)
Method: as §1, §2

[4] = tested on: Abutilon theophrasti Medicus; assay: Herbicidal activity test, pre-weeds emergence treatment; conditions: Table 4, 200 g/ha, assessed 2 to 3 weeks after spraying, scale 0-10 (0: no effect, 10: complete death)
Method: as §1, §2

Aeschynomene indica [5] = assay: as above; conditions: Table 4, 200 g/ha, assessed 2 to 3 weeks after spraying, scale 0-10 (0: no effect, 10: complete death)
Method: as §1, §2

Quamoclit pennata [6] = assay: as above; conditions: Table 4, 200 g/ha, assessed 2 to 3 weeks after spraying, scale 0-10 (0: no effect, 10: complete death)
Method: as §1, §2

Xanthium strumarium [7] = assay: as above; conditions: Table 4, 200 g/ha, assessed 2 to 3 weeks after spraying, scale 0-10 (0: no effect, 10: complete death)
Method: as §1, §2

maize [8] = assay: Herbicidal activity test, post-weeds emergence treatment (crop damage); conditions: spray amount 200 g/ha for crops, assessed after 2 to 3 weeks, 0: no effect, 10: complete death, Table 6
Method: as §1
(§3) Pots for crops and weeds were prepared in the same manner as in Experimental Example 1, and then, when the crops and the weeds were raised up to 2 weeks roughly on a third-leaf stage, the compounds and the control material were sprayed thereon in the same manner as described above. The spray amount was 200 g/ha. After 2 to 3 weeks from the spraying of the test substance or the control substance, the efficacy and the damages on each weed and each crop were assessed according to the scale of 0-10 (0: no effect, 10: complete death) scale.
as §2, with “5,” for “3,”, “four” for “three”, “used. The spray amount was 200 g/ha for crops and 50 g/ha for weeds.” for “used.”

rice [9] = assay: as above; conditions: spray amount 200 g/ha for crops, assessed after 2 to 3 weeks, 0: no effect, 10: complete death, Table 6
Method: as §1, §3
as §2, with “5,” for “3,”, “four” for “three”, “used. The spray amount was 200 g/ha for crops and 50 g/ha for weeds.” for “used.”

wheat [10] = assay: as above; conditions: spray amount 200 g/ha for crops, assessed after 2 to 3 weeks, 0: no effect, 10: complete death, Table 6
Method: as §1, §3
as §2, with “5,” for “3,”, “four” for “three”, “used. The spray amount was 200 g/ha for crops and 50 g/ha for weeds.” for “used.”

[11] = tested on: Abutilon theophrasti Medicus; assay: Herbicidal activity test, post-weeds emergence treatment; conditions: spray amount 50 g/ha for weeds, assessed after 2 to 3 weeks, 0: no effect, 10: complete death, Table 6
Method: as §1, §3
as §2, with “5,” for “3,”, “four” for “three”, “used. The spray amount was 200 g/ha for crops and 50 g/ha for weeds.” for “used.”

Aeschynomene indica [12] = assay: as above; conditions: spray amount 50 g/ha for weeds, assessed after 2 to 3 weeks, 0: no effect, 10: complete death, Table 6
Method: as §1, §3
as §2, with “5,” for “3,”, “four” for “three”, “used. The spray amount was 200 g/ha for crops and 50 g/ha for weeds.” for “used.”

Quamoclit pennata [13] = assay: as above; conditions: spray amount 50 g/ha for weeds, assessed after 2 to 3 weeks, 0: no effect, 10: complete death, Table 6
Method: as §1, §3
as §2, with “5,” for “3,”, “four” for “three”, “used. The spray amount was 200 g/ha for crops and 50 g/ha for weeds.” for “used.”

Xanthium strumarium [14] = assay: as above; conditions: spray amount 50 g/ha for weeds, assessed after 2 to 3 weeks, 0: no effect, 10: complete death, Table 6
Method: as §1, §3
as §2, with “5,” for “3,”, “four” for “three”, “used. The spray amount was 200 g/ha for crops and 50 g/ha for weeds.” for “used.”

Row | SMILES | PRE ZEAMX (maize), damage score (maize [1]) | PRE ORYSA (rice), damage score (rice [2]) | PRE TRZAW (wheat), damage score (wheat [3]) | PRE ABUTH (Abutilon theophrasti Medicus), efficacy score [4] | PRE AESIN (Aeschynomene indica), efficacy score (Aeschynomene indica [5]) | PRE IPOAN (Quamoclit pennata), efficacy score (Quamoclit pennata [6]) | PRE XANST (Xanthium strumarium), efficacy score (Xanthium strumarium [7]) | ZEAMX (maize) damage, scale of 0-10 (maize [8]) | ORYSA (rice) damage, scale of 0-10 (rice [9]) | TRZAW (wheat) damage, scale of 0-10 (wheat [10]) | ABUTH (Abutilon theophrasti Medicus) herbicidal efficacy, scale of 0-10 [11] | AESIN (Aeschynomene indica) herbicidal efficacy, scale of 0-10 (Aeschynomene indica [12]) | IPOAN (Quamoclit pennata) herbicidal efficacy, scale of 0-10 (Quamoclit pennata [13]) | XANST (Xanthium strumarium) herbicidal efficacy, scale of 0-10 (Xanthium strumarium [14])
1 | CC(C)COC(=O)c1nc(C2CC(Br)=NO2)cc(N)c1Cl (centres unmarked) [Compound 84, isobutyl 4-amino-6-(3-bromo-4,5-dihydroisoxazol-5-yl)-3-chloropicolinate] | 0 | 1 | 0 | 4 | 10 | 5 | 10 | 0 | 0 | 0 | 6 | 9 | 6 | 10
2 | COC(=O)c1nc(C2(C)CC(Br)=NO2)cc(N)c1Cl (centres unmarked) [Compound 53, methyl 4-amino-3-chloro-6-(3-bromo-5-methyl-4,5-dihydroisoxazol-5-yl)picolinate] | 0 | 0 | 0 | 10 | 10 | 6 | 9 | 0 | 0 | 1 | 6 | 9 | 4 | 9
3 | Nc1cc(C2CC(Br)=NO2)nc(C(=O)OCc2ccc(F)cc2)c1Cl (centres unmarked) [Compound 90, 4-fluorobenzyl 4-amino-6-(3-bromo-4,5-dihydroisoxazol-5-yl)-3-chloropicolinate] | 0 | 0 | 0 | 3 | 10 | 3 | 7 | 0 | 0 | 0 | 5 | 7 | 4 | 10
4 | Nc1cc(C2CC(Br)=NO2)nc(C(=O)OCc2ccc(Br)cc2)c1Cl (centres unmarked) [Compound 91, 4-bromobenzyl 4-amino-6-(3-bromo-4,5-dihydroisoxazol-5-yl)-3-chloropicolinate] | 0 | 0 | 0 | 10 | 6 | 2 | 6 | 0 | 0 | 0 | 5 | 6 | 5 | 10
